{
  "source": "patent US20180317484A1",
  "about": "(priority 2017, published 2018)",
  "system": "Aspergillus flavus",
  "experiment": "microbe, parasite or virus in culture",
  "assay_type": "cell-based",
  "data": [
    {"smiles": "O=[N+]([O-])c1ccc2nc(-c3ccco3)[nH]c2c1", "note": "[6-NFBD, 2-(2-Furyl)-6-nitrobenzimidazole]", "values": [
      {"measurement": "effect on growth of the fungi, in words", "result": "does not inhibit the growth"}
    ]},
    {"smiles": "O=C(O)c1ccc2nc(-c3ccco3)[nH]c2c1", "note": "[6-CAFBD, 2-(2-Furyl) benzimidazole-6-carboxylic acid]", "values": [
      {"measurement": "effect on growth of the fungi, in words", "result": "does not inhibit the growth"}
    ]},
    {"smiles": "NC(=NO)c1ccc2nc(-c3ccco3)[nH]c2c1", "note": "[6-AFBD, 2-(2-Furyl) benzimidazole-6-carboxamidoxime]", "values": [
      {"measurement": "effect on growth of the fungi, in words", "result": "does not inhibit the growth"}
    ]},
    {"smiles": "c1coc(-c2nc3ccccc3[nH]2)c1", "note": "[FBD, 2-(2-Furyl)benzimidazole]", "values": [
      {"measurement": "inhibition at 50 µg/mL", "setting": "Aspergillus flavus, 168 h, read-out: percentage of inhibition of growth of the fungi (Aspergillus flavus)", "result": 100, "unit": "%"}
    ]}
  ]
}
